According to PMC4104029, “Mechanism of Action of Compound-13: An α1-Selective Small Molecule Activator of AMPK” (Chemistry & Biology, 2014):

Tests used:
AMP deaminase-1 = assay: AMPD1 assay; assay type: biochemical, chicken; conditions: concentrations up to 100 μM; data not shown
Source text: Supplemental Experimental Procedures:
Materials. Compounds 2 and 13 were synthesised by PeakDale Molecular and Natalia Shpiro (MRC-PPU, Dundee), respectively, as described previously (Gomez-Galeno, et al., 2010).
A769662 was from Selleck Chemicals and AICAR from Toronto Research Chemicals. Mouse FBP1, PYGM and PFK1 (muscle isoform) were cloned, expressed and purified from E.coli using standard techniques. AMPD was purified from chicken muscle (Smiley, et al., 1967).
PP2Cα expressed in E.coli was from the Division of Signal Transduction Therapy (DSTT, Dundee). Peptides were synthesised by GL Biochem (Shanghai). [γ-32P]-ATP, [1-14C]-acetic acid and [9,10-3H(N)]-palmitic acid were from PerkinElmer. pS79 ACC1 (#3661), ACC1 […]
antibodies were purchased from Cell Signaling Technology. Anti-AMPKα1 (07-350) and AMPKα2 (07-363) used for immunoblotting were from Merck-Millipore. Anti-AMPKγ1 was from Origene (clone Y308). Anti-AMPKγ2 was from Epitomics (S1562). Anti-tubulin (B-5-1-2), anti-FLAG (F7425) and anti-FLAG M2 agarose were from Sigma. Anti-HA (HA.11) was from Covance Research Products. AMPKα1/2 antibodies used for immunoprecipitation kinase assays were described previously (Sakamoto, et al., 2006). […]
AMPK preparations. […] Isolated human AMPKα subunits were expressed as N-terminal GST-fusions in E.coli and activated as described for heterotrimeric complexes. […]

β1-KO hepatocytes = assay: AMPK signaling, western blotting; assay type: cell-based, mouse; conditions: 1 hr; A769662 100 μM
Protocol: (§1) Figure 7 C13 Activates Both β1 and β2 Complexes in Mouse Hepatocytes (A) Hepatocytes from WT, AMPKβ1^−/−, and AMPKβ2^−/− mice were incubated with the indicated concentrations of C13 for 1 hr. A769662 (100 μM) was included as a positive control. Lysates were analyzed using western blotting with the indicated antibodies. (B) Mouse hepatocytes from the indicated genotypes were treated with the indicated concentrations of C13 and labeled with [^3H]acetate for 4 hr. Lipogenesis was estimated from the incorporation of acetate into total lipids. Results are expressed as the mean acetate incorporated in micromoles per gram-hour ± SD.

WT and β2-KO hepatocytes = assay: AMPK signaling, western blotting; assay type: cell-based, mouse; conditions: 1 hr; A769662 100 μM
Protocol: as §1

SMILES | effect on enzyme activity (AMP deaminase-1) | stimulation of AMPK (Thr172 phosphorylation) (β1-KO hepatocytes) | phosphorylation of Thr172 and ACC, as well as Raptor (WT and β2-KO hepatocytes)
O=P(O)(O)c1ccc(-c2cc(O)on2)o1 [Compound C2, 5-(5-hydroxyl-isoxazol-3-yl)-furan-2-phosphonic acid] | None of these enzymes were affected |  | 
CC(C)C(=O)OCOP(=O)(OCOC(=O)C(C)C)c1ccc(C2=NOC(=O)C2)o1 [Compound C13] |  | modestly stimulated | robustly stimulated
